Reference: patent US9932314B2, “Pyrazole compounds and their use as T-type calcium channel blockers” (IDORSIA PHARMACEUTICALS LTD, priority 2015, dated 2018)

Target: T1, voltage-dependent T-type calcium channel subunit alpha-1G (Cav3.2) (Homo sapiens, UniProt O95180)
T1 construct: expressed in transfected cells; host or cells: HEK293
Test: FLIPR calcium flux assay, HEK293 cells recombinantly expressing Cav3.2
Type: cell-based
Conditions: Cav3.2-channel, Fluo-4-AM, 3 min incubation, stimulation with 10 mM CaCl2
How it was run: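 HEK293 cells stably expressing human Cav3.2 were loaded with Fluo-4-AM. Compounds diluted in TEAC buffer (pH 7.2) were preincubated for 3 min, then Ca2+ entry was triggered by 10 mM final CaCl2. Inhibition curves were fitted sigmoidally to the area under the fluorescence trace.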

T1 sequence (O95180 whole entry): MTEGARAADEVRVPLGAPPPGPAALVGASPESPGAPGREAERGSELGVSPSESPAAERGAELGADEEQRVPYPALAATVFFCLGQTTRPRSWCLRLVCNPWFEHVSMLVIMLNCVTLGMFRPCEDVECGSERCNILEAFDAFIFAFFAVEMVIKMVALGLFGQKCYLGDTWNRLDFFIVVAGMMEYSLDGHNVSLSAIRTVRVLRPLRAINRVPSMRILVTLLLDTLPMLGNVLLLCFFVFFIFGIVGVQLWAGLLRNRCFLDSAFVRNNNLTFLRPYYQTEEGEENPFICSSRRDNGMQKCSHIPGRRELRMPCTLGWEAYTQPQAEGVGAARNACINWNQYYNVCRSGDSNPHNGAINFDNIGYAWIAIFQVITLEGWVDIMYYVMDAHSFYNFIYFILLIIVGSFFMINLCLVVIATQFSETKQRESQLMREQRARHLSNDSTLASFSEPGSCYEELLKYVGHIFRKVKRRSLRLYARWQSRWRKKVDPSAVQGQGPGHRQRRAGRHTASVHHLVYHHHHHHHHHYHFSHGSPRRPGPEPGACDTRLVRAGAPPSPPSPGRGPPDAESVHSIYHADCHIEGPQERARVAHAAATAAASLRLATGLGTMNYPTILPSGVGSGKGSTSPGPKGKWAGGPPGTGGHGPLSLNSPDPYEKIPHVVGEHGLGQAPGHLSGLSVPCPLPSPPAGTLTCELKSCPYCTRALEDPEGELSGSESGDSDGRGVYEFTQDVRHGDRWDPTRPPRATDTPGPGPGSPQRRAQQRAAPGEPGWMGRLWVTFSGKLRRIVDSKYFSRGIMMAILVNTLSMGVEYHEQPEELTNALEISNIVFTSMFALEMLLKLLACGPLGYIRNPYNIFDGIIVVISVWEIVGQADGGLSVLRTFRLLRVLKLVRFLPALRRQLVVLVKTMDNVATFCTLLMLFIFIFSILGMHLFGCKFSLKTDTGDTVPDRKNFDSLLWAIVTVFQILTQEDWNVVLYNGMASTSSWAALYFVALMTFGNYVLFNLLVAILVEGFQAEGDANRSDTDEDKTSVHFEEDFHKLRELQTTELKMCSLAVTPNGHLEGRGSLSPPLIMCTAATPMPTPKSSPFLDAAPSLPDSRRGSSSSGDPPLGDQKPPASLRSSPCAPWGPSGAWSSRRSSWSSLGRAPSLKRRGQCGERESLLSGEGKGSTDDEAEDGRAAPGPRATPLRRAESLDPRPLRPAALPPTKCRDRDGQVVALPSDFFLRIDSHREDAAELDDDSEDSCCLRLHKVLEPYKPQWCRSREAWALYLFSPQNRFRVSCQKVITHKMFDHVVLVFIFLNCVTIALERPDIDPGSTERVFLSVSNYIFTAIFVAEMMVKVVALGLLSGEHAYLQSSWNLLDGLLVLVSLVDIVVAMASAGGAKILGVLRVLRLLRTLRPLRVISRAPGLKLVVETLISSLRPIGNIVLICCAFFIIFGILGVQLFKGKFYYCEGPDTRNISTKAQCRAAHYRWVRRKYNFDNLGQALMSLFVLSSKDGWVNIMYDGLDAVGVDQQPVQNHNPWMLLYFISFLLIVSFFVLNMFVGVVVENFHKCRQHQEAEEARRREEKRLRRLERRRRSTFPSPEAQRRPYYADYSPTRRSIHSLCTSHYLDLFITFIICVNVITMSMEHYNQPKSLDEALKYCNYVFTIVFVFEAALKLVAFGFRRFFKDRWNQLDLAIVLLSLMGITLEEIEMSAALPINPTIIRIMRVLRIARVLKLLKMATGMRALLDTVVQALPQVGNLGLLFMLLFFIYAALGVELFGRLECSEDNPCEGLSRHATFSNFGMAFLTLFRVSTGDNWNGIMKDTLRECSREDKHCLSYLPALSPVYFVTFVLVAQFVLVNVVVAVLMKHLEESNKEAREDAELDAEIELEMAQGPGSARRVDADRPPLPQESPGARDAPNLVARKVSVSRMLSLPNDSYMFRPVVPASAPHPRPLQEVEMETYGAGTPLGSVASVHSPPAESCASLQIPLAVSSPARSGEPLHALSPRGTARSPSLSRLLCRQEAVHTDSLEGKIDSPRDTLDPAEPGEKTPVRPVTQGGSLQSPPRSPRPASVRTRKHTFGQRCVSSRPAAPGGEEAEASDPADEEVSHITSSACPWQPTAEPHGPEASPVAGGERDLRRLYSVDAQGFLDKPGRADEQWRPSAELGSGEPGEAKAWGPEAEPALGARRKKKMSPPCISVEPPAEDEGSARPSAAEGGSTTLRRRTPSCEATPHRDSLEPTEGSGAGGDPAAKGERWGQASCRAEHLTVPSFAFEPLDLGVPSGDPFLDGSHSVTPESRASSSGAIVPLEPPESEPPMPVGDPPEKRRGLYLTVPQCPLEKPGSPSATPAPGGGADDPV

Row | Compound | IC50 [µM]
1 | N#Cc1ccc(Cn2ccc(NC(=O)Cc3ccc(OC4COC4)cc3)n2)nc1 [Example 247, N-[1-(5-Cyano-pyridin-2-ylmethyl)-1H-pyrazol-3-yl]-2-[4-(oxetan-3-yloxy)-phenyl]-acetamide] | 2.59
2 | O=C(Cc1ccc(N2CCC2)nc1)Nc1ccn(Cc2ccc(F)cc2)n1 [Example 103, 2-(6-Azetidin-1-yl-pyridin-3-yl)-N-[1-(4-fluoro-benzyl)-1H-pyrazol-3-yl]-acetamide] | 0.145
3 | CO[C@H](C)c1ccc(CC(=O)Nc2ccn(Cc3ccc(F)c(F)c3)n2)cc1 (single isomer, unassigned) [Example 232] | 0.0058
4 | O=C(Cc1ccc(OC2CC2)cc1)Nc1ccn(Cc2ccc(F)c(F)c2)n1 [Example 66, 2-(4-Cyclopropoxy-phenyl)-N-[1-(3,4-difluoro-benzyl)-1H-pyrazol-3-yl]-acetamide] | 0.019
5 | N#Cc1ccc(Cn2ccc(NC(=O)Cc3ccc(OCC4(F)COC4)cc3)n2)nc1 [Example 248, N-[1-(5-Cyano-pyridin-2-ylmethyl)-1H-pyrazol-3-yl]-2-[4-(3-fluoro-oxetan-3-ylmethoxy)-phenyl]-acetamide] | 1.81
6 | N#Cc1cc(Cn2ccc(NC(=O)Cc3ccc(C4(C(F)(F)F)CC4)cc3)n2)ccc1F [Example 314, N-[1-(3-Cyano-4-fluoro-benzyl)-1H-pyrazol-3-yl]-2-[4-(1-trifluoromethyl-cyclopropyl)-phenyl]-acetamide] | 0.032
7 | N#Cc1nc(Cn2ccc(NC(=O)Cc3ccc(OCC(F)(F)F)c(C4CC4)c3)n2)ccc1F [Example 408, N-[1-(6-Cyano-5-fluoro-pyridin-2-ylmethyl)-1H-pyrazol-3-yl]-2-[3-cyclopropyl-4-(2,2,2-trifluoro-ethoxy)-phenyl]-acetamide] | 0.0085
8 | CCn1ncc2cc(CC(=O)Nc3ccn(Cc4ccc(C)c(C#N)n4)n3)ccc21 [Example 370, N-[1-(6-Cyano-5-methyl-pyridin-2-ylmethyl)-1H-pyrazol-3-yl]-2-(1-ethyl-1H-indazol-5-yl)-acetamide] | 0.578
9 | N#Cc1ccc(Cn2ccc(NC(=O)Cc3ccc(OCC4CC(F)(F)C4)cc3)n2)cc1 [Example 299, N-[1-(4-Cyano-benzyl)-1H-pyrazol-3-yl]-2-[4-(3,3-difluoro-cyclobutylmethoxy)-phenyl]-acetamide] | 0.037
10 | CN(C)c1ccc(CC(=O)Nc2ccn(Cc3ccc(Cl)cc3)n2)cn1 [Example 5, N-[1-(4-Chloro-benzyl)-1H-pyrazol-3-yl]-2-(6-dimethylamino-pyridin-3-yl)-acetamide] | 0.02
11 | N#Cc1c(F)cc(Cn2ccc(NC(=O)Cc3ccc(C4(C(F)(F)F)CC4)cc3)n2)cc1F [Example 350, N-[1-(4-Cyano-3,5-difluoro-benzyl)-1H-pyrazol-3-yl]-2-[4-(1-trifluoromethyl-cyclopropyl)-phenyl]-acetamide] | 0.069
12 | COC1(c2ccc(CC(=O)Nc3ccn(Cc4cc(F)c(C#N)c(F)c4)n3)cc2)COC1 [Example 359, N-[1-(4-Cyano-3,5-difluoro-benzyl)-1H-pyrazol-3-yl]-2-[4-(3-methoxy-oxetan-3-yl)-phenyl]-acetamide] | 0.212
13 | O=C(Cc1ccc(N2CCC2)cc1)Nc1ccn(Cc2ccc(F)cc2)n1 [Example 53, 2-(4-Azetidin-1-yl-phenyl)-N-[1-(4-fluoro-benzyl)-1H-pyrazol-3-yl]-acetamide] | 0.0067
14 | CN(C)c1ccc(CC(=O)Nc2ccn(Cc3ccc(Cl)c(F)c3)n2)cn1 [Example 42, N-[1-(4-Chloro-3-fluoro-benzyl)-1H-pyrazol-3-yl]-2-(6-dimethylamino-pyridin-3-yl)-acetamide] | 0.019
15 | CN(C)c1ccc(CC(=O)Nc2ccn(Cc3ccc(Br)cc3)n2)cc1 [Example 239, N-[1-(4-Bromo-benzyl)-1H-pyrazol-3-yl]-2-(4-dimethylamino-phenyl)-acetamide] | 0.0024
16 | N#Cc1cc(Cn2ccc(NC(=O)Cc3ccc(OC4CC(F)(F)C4)cc3)n2)ccc1F [Example 281, N-[1-(3-Cyano-4-fluoro-benzyl)-1H-pyrazol-3-yl]-2-[4-(3,3-difluoro-cyclobutoxy)-phenyl]-acetamide] | 0.021
17 | CC(C)(C)c1ccc(CC(=O)Nc2ccn(Cc3cc(F)c(C#N)c(F)c3)n2)cc1 [Example 352, 2-(4-tert-Butyl-phenyl)-N-[1-(4-cyano-3,5-difluoro-benzyl)-1H-pyrazol-3-yl]-acetamide] | 0.022
18 | CC1(COc2ccc(CC(=O)Nc3ccn(Cc4ccc(C#N)c(F)c4)n3)cc2)CC(F)(F)C1 [Example 290, N-[1-(4-Cyano-3-fluoro-benzyl)-1H-pyrazol-3-yl]-2-[4-(3,3-difluoro-1-methyl-cyclobutylmethoxy)-phenyl]-acetamide] | 0.039
19 | CCN(CC)c1ccc(CC(=O)Nc2ccn(Cc3ccc(OC)cc3)n2)cn1 [Example 191, 2-(6-Diethylamino-pyridin-3-yl)-N-[1-(4-methoxy-benzyl)-1H-pyrazol-3-yl]-acetamide] | 0.093

Row | Compound | IC50 [µM]
20 | O=C(Cc1ccc(OCC2COC2)cc1)Nc1ccn(Cc2ccc(F)c(F)c2)n1 [Example 242, N-[1-(3,4-Difluoro-benzyl)-1H-pyrazol-3-yl]-2-[4-(oxetan-3-ylmethoxy)-phenyl]-acetamide] | 0.039
21 | Cc1nc2ccc(CC(=O)Nc3ccn(Cc4ccc(C#N)cc4)n3)cc2[nH]1 [Example 136, N-[1-(4-Cyano-benzyl)-1H-pyrazol-3-yl]-2-(2-methyl-3H-benzoimidazol-5-yl)-acetamide] | 1.57
22 | O=C(Cc1ccc(N2CC(F)C2)nc1)Nc1ccn(Cc2ccc(F)c(F)c2)n1 [Example 160, N-[1-(3,4-Difluoro-benzyl)-1H-pyrazol-3-yl]-2-[6-(3-fluoro-azetidin-1-yl)-pyridin-3-yl]-acetamide] | 0.029
23 | O=C(Cc1ccc(OCC2(F)COC2)cc1)Nc1ccn(Cc2ccc(F)c(F)c2)n1 [Example 245, N-[1-(3,4-Difluoro-benzyl)-1H-pyrazol-3-yl]-2-[4-(3-fluoro-oxetan-3-ylmethoxy)-phenyl]-acetamide] | 0.03
24 | Cc1cn(C)c2ccc(CC(=O)Nc3ccn(Cc4cc(F)c(C#N)c(F)c4)n3)cc12 [Example 358, N-[1-(4-Cyano-3,5-difluoro-benzyl)-1H-pyrazol-3-yl]-2-(1,3-dimethyl-1H-indol-5-yl)-acetamide] | 0.02
25 | CC1COc2cc(CC(=O)Nc3ccn(Cc4ccc(C#N)cn4)n3)ccc2C1 (racemic) [Example 388, rac-N-[1-(5-Cyano-pyridin-2-ylmethyl)-1H-pyrazol-3-yl]-2-(3-methyl-chroman-7-yl)-acetamide] | 0.03
26 | COc1ccc(Cn2ccc(NC(=O)Cc3ccc(N4CCCC4)nc3)n2)cc1 [Example 178, N-[1-(4-Methoxy-benzyl)-1H-pyrazol-3-yl]-2-(6-pyrrolidin-1-yl-pyridin-3-yl)-acetamide] | 0.099
27 | N#Cc1cnc(Cn2ccc(NC(=O)Cc3ccc(C4(C(F)(F)F)CC4)cc3)n2)c(F)c1 [Example 389, N-[1-(5-Cyano-3-fluoro-pyridin-2-ylmethyl)-1H-pyrazol-3-yl]-2-[4-(1-trifluoromethyl-cyclopropyl)-phenyl]-acetamide] | 0.506
28 | N-[1-(5-Cyano-pyridin-2-ylmethyl)-1H-pyrazol-3-yl]-2-[4-(1-methyl-cyclopropyl)-phenyl]-acetamide [Example 375] | 0.0099
29 | N#Cc1ccc(Cn2ccc(NC(=O)Cc3cnc(N4CCCC4)c(F)c3)n2)nc1 [Example 341, N-[1-(5-Cyano-pyridin-2-ylmethyl)-1H-pyrazol-3-yl]-2-(5-fluoro-6-pyrrolidin-1-yl-pyridin-3-yl)-acetamide] | 0.064
30 | Cc1cc(CC(=O)Nc2ccn(Cc3ccc(C)c(C#N)n3)n2)ccc1OCC(F)(F)F [Example 367, N-[1-(6-Cyano-5-methyl-pyridin-2-ylmethyl)-1H-pyrazol-3-yl]-2-[3-methyl-4-(2,2,2-trifluoro-ethoxy)-phenyl]-acetamide] | 0.01
31 | COCCN(C)c1ccc(CC(=O)Nc2ccn(Cc3ccc(C#N)cn3)n2)cn1 [Example 179, N-[1-(5-Cyano-pyridin-2-ylmethyl)-1H-pyrazol-3-yl]-2-{6-[(2-methoxy-ethyl)-methyl-amino]-pyridin-3-yl}-acetamide] | 2.5
32 | O=C(Cc1ccc(-c2ncon2)cc1)Nc1ccn(Cc2ccc(F)c(F)c2)n1 [Example 236, N-[1-(3,4-Difluoro-benzyl)-1H-pyrazol-3-yl]-2-(4-[1,2,4]oxadiazol-3-yl-phenyl)-acetamide] | 0.018
33 | O=C(Cc1ccc(N2CCCC2)nc1)Nc1ccn(Cc2ccc(F)cc2)n1 [Example 177, N-[1-(4-Fluoro-benzyl)-1H-pyrazol-3-yl]-2-(6-pyrrolidin-1-yl-pyridin-3-yl)-acetamide] | 0.018
34 | O=C(Cc1ccc(N2CCC(F)(F)C2)cc1)Nc1ccn(Cc2ccc(F)c(F)c2)n1 [Example 67, N-[1-(3,4-Difluoro-benzyl)-1H-pyrazol-3-yl]-2-[4-(3,3-difluoro-pyrrolidin-1-yl)-phenyl]-acetamide] | 0.0034
35 | Cc1cn(C)c2cc(CC(=O)Nc3ccn(Cc4ccc(C#N)cn4)n3)ccc12 [Example 331, N-[1-(5-Cyano-pyridin-2-ylmethyl)-1H-pyrazol-3-yl]-2-(1,3-dimethyl-1H-indol-6-yl)-acetamide] | 0.0096
36 | N#Cc1ccc(Cn2ccc(NC(=O)Cc3ccc(OC4CC(F)(F)C4)cc3)n2)cc1F [Example 261, N-[1-(4-Cyano-3-fluoro-benzyl)-1H-pyrazol-3-yl]-2-[4-(3,3-difluoro-cyclobutoxy)-phenyl]-acetamide] | 0.015
37 | COC(C)c1ccc(CC(=O)Nc2ccn(Cc3ccc(C#N)cc3)n2)cc1 (racemic) [Example 320, rac-N-[1-(4-Cyano-benzyl)-1H-pyrazol-3-yl]-2-[4-(1-methoxy-ethyl)-phenyl]-acetamide] | 0.099
38 | Cc1cc(Cn2ccc(NC(=O)Cc3ccc(C(C)C)cc3)n2)ncc1C#N [Example 169, N-[1-(5-Cyano-4-methyl-pyridin-2-ylmethyl)-1H-pyrazol-3-yl]-2-(4-isopropyl-phenyl)-acetamide] | 0.104
